Laboratory results: patent publication US20130211371A1, “FORMULATIONS AND METHODS OF TREATMENT OF SKIN CONDITIONS” (Hy Biopharma, Inc., priority 2010, published 2013)
Marks after values point to notes of the source that are not given here.

Assays:
[1] = cited from earlier work
[2] = Phase I clinical trial, cutaneous phototoxicity of topical hypericin with visible light; format: in vivo, human
[3] = tested on: MF lesions; test: Phase II study, topical hypericin and visible light, MF arm; format: in vivo, human; details: 6 weeks
Experimental: (§1) This study is designed to evaluate the safety and efficacy of topical hypericin in concentrations of 0.1% and 0.25% under occlusion for 24 hours followed by administration of visible light in doses ranging from 8 to 20 J/cm^2 twice weekly for 6 weeks for the treatment of psoriasis or MF. One of the four centers involved in the study administered topical hypericin in concentrations of 0.05 and 0.1%. The concentration of hypericin and the dose of light were based upon the Phase I study described above with normal volunteers.
A standardized topical amount of hypericin in either ointment or liquid formula was applied to defined plaques on the skin of volunteer subjects. […]
(§2) Skin reactions were evaluated each week immediately after irradiation and again at 48 and 72 hours later. The sites of irradiation were examined twice per week thereafter and all changes; e.g., erythema, edema, desquamation, pigmentation, etc, were recorded.
Lesion responses in this study were scored in accordance with the following scales at each patient evaluation:lesional CR=complete regression of the treated lesion; PR=>50% decrease in lesional area during treatment; Stable=<50% decrease in size or <25% increase in size during therapy; Progression=>25% increase in size during therapy. […] If so, the patient was scored as a responder for that lesion. […]

[4] = tested on: psoriasis lesions; test: Phase II study, topical hypericin and visible light, psoriasis arm; format: in vivo, human; details: All Ointment + Liquid, 6 weeks
Experimental: as §1
A standardized topical amount of hypericin in either ointment or liquid formula was applied to defined plaques on the skin of volunteer subjects. The amount of hypericin in each topical application was as follows: 0.05%=0.005 mg/cm^2; 0.1%=0.01 mg/ cm^2, and 0.25%=0.025 mg/ cm^2.
Each hypericin treatment or placebo was applied twice weekly for a period of 24 hours prior to irradiation. Each application site was covered by non-absorbing Webril cotton of equal area and occluded with occlusive tape (Blenderm, 3M); excess drug was removed prior to irradiation (24 hours post drug application).
Irradiation was undertaken using visible fluorescent bulbs (590-650 nm) (GE cool white fluorescent bulbs, 20-watt fluorescent tubes housed in a reflecting bank) for a period not to exceed 15 minutes (total number of joules approximately 5/cm^2). The light dose was administered twice weekly, separated by at least one day.
The light dose was increased once weekly by 1 joule/cm^2 until symptoms or signs of phototoxicity appeared. At that point, the dose could either be maintained or reduced by 1 joule/cm^2 if phototoxicity was pronounced (skin erythema of greater than 1+[minimal visible erythema).
as §2
Lesion responses in this study were scored in accordance with the following scales at each patient evaluation:lesional CR=complete regression of the treated lesion; PR=>50% decrease in lesional area during treatment; Stable=<50% decrease in size or <25% increase in size during therapy; Progression=>25% increase in size during therapy. The success/failure criterion for each lesion on each patient was whether there was a 50% or better improvement in the lesion area at the end of the 6-week treatment cycle. If so, the patient was scored as a responder for that lesion. Table 1 indicates the rating criteria for patient response.
All patients receiving treatment for MF were treated with the ointment preparation. For patients with psoriasis, 5 patients were treated with 0.1% and 0.25% aqueous solutions of hypericin in dimethyl sulfoxide (DMSO) and 6 patients were treated with the USP
Hydrophilic Ointment preparations. The liquid dosage form consisted of dissolving either 0.2 mL or 0.5 mL hypericin stock solution (polyethylene glycol solution) in 44.8 or 44.5 mL of 50% DMSO/water and mixing with a magnetic stirrer.
The response or lack of response, of each lesion treated with either placebo ointment or with a hypericin-containing ointment was analyzed as a binomial (i.e., yes/no) distribution.
This was an appropriate analysis for response which was quantal in nature. For the null hypothesis (no treatment response) it was assumed that spontaneous resolution of the lesion by the protocol specified 6-week time point would not occur. That is, the true probability of spontaneous lesion regression (defined as <50% of its baseline size for CTCL and to <50% of its combined baseline score for psoriasis lesions) was taken as zero (0%). For the MF analysis, a repeated measures logistic regression was employed to obtain p-values. For analysis of the psoriasis data, a likelihood ratio chi-square test was employed.

[5] = Phase II study, adverse events; format: in vivo, human
Experimental: as §2

Structure (SMILES): Cc1cc(O)c2c(=O)c3c(O)cc(O)c4c5c(O)cc(O)c6c(=O)c7c(O)cc(C)c8c1c2c(c34)c(c78)c65 [Hypericin, 4,5,7,4′,5′,7′ -dimethyl-meso naphthodiantbrone]
- half life ([1]; in vivo): 20 to 24 h
- bioavailable following oral administration ([1]; oral): about 20%
- Cutaneous reactions at 0.02% ([2]; 0.02% hypericin, any dose of light): no cutaneous reactions
- Cutaneous photosensitivity at 0.1% and 0.5% ([2]; topical under occlusion, visible light 24 hours after application): causes cutaneous photosensitivity
- Percent Responders, Hypericin 0.1% Dose (MF) ([3]; ointment 0.1%): 41.7%
- Percent Responders, Hypericin 0.25% Dose (MF) ([3]; ointment 0.25%): 55.6%
- Percent Responders, Response to 0.05% Dose (psoriasis) ([4]; 0.05%): 9.1%
- Responders/Total, Response to 0.05% Dose (psoriasis) ([4]; 0.05%): 1/11
- Percent Responders, Hypericin 0.1% Dose (psoriasis) ([4]; 0.1%): 36.4^a,b %
- Responders/Total, Hypericin 0.1% Dose (psoriasis) ([4]; 0.1%): 4/11
- Percent Responders, Hypericin 0.1% Dose (psoriasis) ([4]; 0.1%, listed as hypericin): 36.4%
- Percent Responders, Hypericin 0.25% Dose (psoriasis) ([4]; 0.25%): 45.4%^b
- Responders/Total, Hypericin 0.25% Dose (psoriasis) ([4]; 0.25%): 5/11
- Percent Responders, Hypericin 0.25% Dose (psoriasis) ([4]; 0.25%, listed as hypericin): 45.4%
- Percent Responders, All Hypericin Responders (psoriasis) ([4]; any dose): 54.6%^b
- Responders/Total, All Hypericin Responders (psoriasis) ([4]; any dose): 6/11
- Deaths or serious adverse events / overall safety ([5]; MF and psoriasis patients): No deaths or serious adverse events
- Reported adverse events ([5]; at the application site after visible light): mild to moderate burning, itching, erythema, and pruritus at the application site
